# Key:
# [1] = target: T1, ERAB (L-3-hydroxyacyl-CoA dehydrogenase) (Homo sapiens, UniProt Q99714); test: ERAB enzyme assay (loss of NADH absorbance at 340 nm, acetoacetyl-CoA as substrate); type: biochemical; details: 2.5 nM enzyme preincubated with inhibitor 400 seconds at 30° C., pH 7.5, 36 uM NADH, 2% DMSO; started with acetoacetyl-CoA (38 uM)
# T1 sequence (Q99714 1-261): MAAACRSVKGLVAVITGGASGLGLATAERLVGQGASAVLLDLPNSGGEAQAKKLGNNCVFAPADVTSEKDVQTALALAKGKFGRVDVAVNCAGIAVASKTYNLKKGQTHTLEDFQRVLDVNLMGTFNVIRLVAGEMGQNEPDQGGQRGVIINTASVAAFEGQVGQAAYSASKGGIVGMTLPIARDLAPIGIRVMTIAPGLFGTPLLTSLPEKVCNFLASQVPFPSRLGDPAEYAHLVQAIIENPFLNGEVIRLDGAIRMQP
# Method: The activity of ERAB (L-3-hydroxyacyl-CoA dehydrogenase) in the reverse direction was determined by a modified version of a method previously described (Binstock et al., Methods Enzymol., 71, 403-411 (1981)). This method is based on the enzyme-catalyzed loss of NADH absorbance at 340 nm with a change in the millimolar extinction coefficient of 6.22 mM^−1 cm^−1. The IC50 value for compounds of the Formula I were determined spectrophotometrically by monitoring the […] with acetoacetyl-CoA as substrate and are reported in Table 1. Assay conditions were 25 mM MOPS, 250 mM NaCl, 2% DMSO, 2.5 mM TCEP, pH 7.5, 30° C. NADH and ERAB were included at 40 uM and 2.5 nM, respectively. Stock solutions of ERAB, prepared in assay buffer, were 1 uM and contained 100 uM NADH for enzyme stability. The assay was run as follows: Enzyme (2.5 nM) was preincubated with inhibitor (without acetoacetyl-CoA present) for 400 seconds at 30° C. in the presence of 36 uM NADH, 25 mM MOPS, pH 7.5, 250 mM NaCl, 2%(v/v) DMSO, and 2.5 mM TCEP. The reaction was initiated by addition of substrate (acetoacetyl-CoA) (38 uM). Reduction of NADH was monitored at 340λ. Initial rates were calculated over a time frame where less than 10% of substrates had been consumed in an uninhibited reaction. For Ki, app determination, inhibitors were added during the preincubation stage from DMSO stock solutions for a final and constant 2% DMSO concentration. Initial rates were calculated and fitted, using non-linear fitting techniques, to the Michaelis equation for enzyme inhibition. The IC50 value was determined by non-linear regression analysis using KaleidaGraph (obtained from Synergy Software, Reading, Pa.).
smiles,measurement,setting,value
"O=C(OC1CCCCC1)C(c1ccccc1)n1cnc2[nH]ncc2c1=O (stereo not shown) [XIa, (4-Oxo-1,4-dihydro-pyrazolo[3,4-d]pyrimidin-5-yl)-phenyl-acetic acid cyclohexyl ester]",melting point,,176 to 180 °C
same,IC50,[1],30000 nM
C=CCOc1cccc(C(C(=O)OC2CCCCC2)n2cnc3[nH]ncc3c2=S)c1 (stereo not shown) [XXIII],IC50,[1],11000 nM
CN(C(=O)C(c1ccccc1)n1cnc2[nH]ncc2c1=S)c1ccccc1 (stereo not shown) [XXVe],IC50,[1],749 nM
CCCCC1(O)CCN(C(=O)C(c2ccccc2)n2cnc3[nH]ncc3c2=S)CC1 (stereo not shown) [XXVd],IC50,[1],71 nM
"CCCCC1(O)CCN(C(=O)C(c2ccccc2)n2cnc3[nH]ncc3c2=S)CC1 (stereo not shown) [XVIn, 1-(4-Butyl-4-hydroxy-piperidin-1-yl)-2-phenyl-2-(4-thioxo-1,4-dihydro-pyrazolo[3,4-d]pyrimidin-5-yl)-ethanone]",melting point,,98 to 102 °C
"O=C(C(c1ccccc1)n1cnc2[nH]ncc2c1=S)N1CCCCCCC1 (stereo not shown) [XVIe, 1-Azocan-1-yl-2-phenyl-2-(4-thioxo-1,4-dihydro-1,4-dihydropyrazolo[3,4-d]pyrimidin-5-yl)-ethanone]",melting point,,92 to 95 °C
same,IC50,[1],96 nM
O=C(C(c1cccc(O)c1)n1cnc2[nH]ncc2c1=S)N1CCCCCC1 (stereo not shown) [XXVc],IC50,[1],51 nM
"O=C(C(c1ccccc1)n1cnc2[nH]ncc2c1=S)N1CCCC(O)C1 (stereo not shown) [XVIc, 1-(3-Hydroxy-piperidin-1-yl)-2-phenyl-2-(4-thioxo-1,4-dihydro-1,4-dihydro-pyrazolo[3,4-d]pyrimidin-5-yl)-ethanone]",IC50,[1],1800 nM
"CC(c1ccccc1)n1cnc2[nH]ncc2c1=O (stereo not shown) [LVII, 5-(1-Phenyl-ethyl)-1,5-dihydro-pyrazolo[3,4-d]pyrimidine-4-one]",melting point,,210 to 214 °C
same,IC50,[1],494000 nM
O=C(C(c1ccccc1)n1cnc2[nH]ncc2c1=S)N1CCCCC1 (stereo not shown) [XXVa],IC50,[1],774 nM
"C=CCOc1cccc(C(C(=O)N2CCC(O)(c3ccccc3)CC2)n2cnc3[nH]ncc3c2=S)c1 (stereo not shown) [XVIs, 2-(3-Allyoxy-phenyl)-1-(4-hydroxy-4-phenyl-piperidin-1-yl)-2-(4-thioxo-1,4-dihydro-pyrazolo[3,4-d]pyrimidin-5-yl)-ethanone]",melting point,,116 to 120 °C
same,IC50,[1],406 nM
"CC(c1ccccc1)n1cnc2[nH]ncc2c1=S (stereo not shown) [LVIIIa, 5-(1-Phenyl-ethyl)-1,5-dihydro-pyrazolo[3,4-d]pyrimidine-4-thione]",melting point,,170 to 174 °C
same,IC50,[1],22000 nM
"O=C(OC1CCCCC1)C(c1ccccc1)n1cnc2[nH]ncc2c1=S (stereo not shown) [XIIa, 2-Phenyl-(4-thioxo-1,4-dihydro-pyrazolo[3,4-d]pyrimidin-5-yl)-acetic acid cyclohexyl ester]",melting point,,170 to 173 °C
same,IC50,[1],1200 nM
"O=C(C(c1ccccc1)n1cnc2[nH]ncc2c1=S)N1CCC(O)(c2ccccn2)CC1 (stereo not shown) [XVIm, 1-(4-Hydroxy-3′,4′,5′,6′-tetrahydro-2H-[2,4]bipyridinyl-1′-yl]-2-phenyl-2-(4-thioxo-1,4-dihydro-pyrazolo[3,4-d]pyrimidin-5-yl)-ethanone]",melting point,,138 to 142 °C
same,IC50,[1],279 nM
O=C(C(c1ccccc1)n1cnc2[nH]ncc2c1=O)N1CCCCCC1 (stereo not shown) [L],IC50,[1],7100 nM
"C=CCOc1cccc(C(C(=O)N2CCCCCC2)n2cnc3[nH]ncc3c2=S)c1 (stereo not shown) [XVIt, 2-(3-Allyoxy-phenyl)-1-azepan-1-yl-2-(4-thioxo-1,4-dihydro-pyrazolo[3,4-d]pyrimidin-5-yl)-ethanone]",melting point,,75 to 80 °C
same,IC50,[1],345 nM
"CON(C)C(=O)C(c1ccccc1)n1cnc2[nH]ncc2c1=S (stereo not shown) [XVIb, N-Methoxy-N-methyl-2-phenyl-2-(4-thioxo-1,4-dihydro-1,4-dihydro-pyrazolo[3,4-d]pyrimidin-5-yl)-ethanone]",melting point,,82 to 86 °C
same,IC50,[1],1500 nM
"O=C(C(c1ccccc1)n1cnc2[nH]ncc2c1=S)N1CCN(c2ccccc2)CC1 (stereo not shown) [XVIj, 2-Phenyl-1-(4-phenyl-2-yl-piperazin-1-yl)-2-(4-thioxo-1,4-dihydro-pyrazolo[3,4-d]pyrimidin-5-yl)-ethanone]",melting point,,241 to 245 °C
same,IC50,[1],218 nM
"O=C(C(c1ccccc1)n1cnc2[nH]ncc2c1=S)N1CCC(O)(c2ccccc2)CC1 (stereo not shown) [XVIf, 1-(4-Hydroxy-4-phenyl-piperidin-1-yl)-2phenyl-2-(4-thioxo-1,4-dihydro-1,4-dihydro-pyrazolo[3,4-d]pyrimidin-5-yl)-ethanone]",melting point,,142 to 146 °C
same,IC50,[1],81 nM
"O=C(C(c1ccccc1)n1cnc2[nH]ncc2c1=S)N1CCCCCC1 (stereo not shown) [XVIa, 1-Azepan-1-yl-2-phenyl-2-(4-thioxo-1,4-dihydro-1,4-dihrdropyrazolo[3,4-d]pyrimidin-5-yl)-ethanone]",IC50,[1],97 nM
"O=C(O)C(c1ccccc1)n1cnc2[nH]ncc2c1=S (stereo not shown) [XIVa, 2-Phenyl-(4-thioxo-1,4-dihydro-pyrazolo [3,4-d]pyrimidin-5-yl)acetic acid]",melting point,,95 to 98 °C
same,IC50,[1],514000 nM
"CCN(C(=O)C(c1ccccc1)n1cnc2[nH]ncc2c1=S)C(C)C (stereo not shown) [XVIq, N-Ethyl-N-isopropyl-2-phenyl-2-(4-thioxo-1,4-dihydro-pyrazolo[3,4d]pyrimidin-5-yl)-acetamide]",IC50,[1],2800 nM
"COc1ccc(N2CCN(C(=O)C(c3ccccc3)n3cnc4[nH]ncc4c3=S)CC2)cc1 (stereo not shown) [XVIk, 1-[4-(4-Methoxy-phenyl)-piperazin-1-yl]-2-phenyl-2-(4-thioxo-1,4-dihydro-pyrazolo[3,4-d]pyrimidin-5-yl)-ethanone]",melting point,,114 to 118 °C
same,IC50,[1],300 nM
"CC(=O)C1(c2ccccc2)CCN(C(=O)C(c2ccccc2)n2cnc3[nH]ncc3c2=S)CC1 (stereo not shown) [XVIh, 1-(4-Acetyl-4-phenyl-piperidin-1-yl)-2-phenyl-2-(4-thioxo-1,4-dihydro-pyrazolo[3,4-d]pyrimidin-5-yl)-ethanone]",IC50,[1],766 nM
O=C(C(c1ccccc1)n1cnc2[nH]ncc2c1=S)N1CCC(O)(c2ccc(Br)cc2)CC1 (stereo not shown) [XVIg],melting point,,155 to 160 °C
same,IC50,[1],82 nM
"CCN(CC)C(=O)C(c1ccccc1)n1cnc2[nH]ncc2c1=S (stereo not shown) [XVIr, N,N-Diethyl-2-phenyl-2-(4-thioxo-1,4-dihydro-pyrazolo[3,4-d]pyrimidin-5-yl)-acetamide]",melting point,,143 to 146 °C
same,IC50,[1],93 nM
"O=C(C(c1ccccc1)n1cnc2[nH]ncc2c1=S)N1CCN(c2ccccn2)CC1 (stereo not shown) [XVIi, 2-Phenyl-1-(4-pyridin-2-yl-piperazin-1-yl)-2-(4-thioxo-1,4-dihydro-pyrazolo[3,4-d]pyrimidin-5-yl)-ethanone]",melting point,,242 to 246 °C
same,IC50,[1],389 nM
O=C(C(c1ccccc1)n1cnc2[nH]ncc2c1=S)N1CCC(c2ccccc2)CC1 (stereo not shown) [XXVb],IC50,[1],216 nM
"CC1(O)CCN(C(=O)C(c2ccccc2)n2cnc3[nH]ncc3c2=S)CC1 (stereo not shown) [XVIp, 1-(4-Methyl-4-hydroxy-piperidin-1-yl)-2-phenyl-2-(4-thioxo-1,4-dihydro-pyrazolo[3,4-d]pyrimidin-5-yl)-ethanone]",melting point,,140 to 144 °C
same,IC50,[1],210 nM
